The METLIN SMRT retention time set (Domingo-Almenara et al. 2019)

Assay: gradient 5% acetonitrile 3 min, to 50% in 2 min, to 85% in 15 min, held 3 min, 100 µL/min
Details: column: Zorbax Extend-C18 2.1 x 50 mm; eluents: water / acetonitrile, 0.1% formic acid
Summary of the method: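 The system's dead and dwell volumes were 40 μL and 900 μL, with a Zorbax Extend-C18 column (2.1 × 50 mm, 1.8 μm) run at 100 μL/min in water and acetonitrile containing 0.1% formic acid each. Pure standards were analyzed in mixtures of ~100 molecules by HPLC–quadrupole time-of-flight mass spectrometry in positive and negative ionization mode. Retention time was assigned from computationally picked, manually inspected adduct peaks.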

SMILES	RP-LC retention time
CCn1cc(-c2nc(C(=O)Nc3cccc(C#N)c3)cs2)c2cccnc21	1030 s
c1ccc2c(-c3nc(C4CC4)no3)nnc(NC3CCCCC3)c2c1	775 s
CCc1noc(-c2ccc(-n3ncc(C(=O)N4CCSCC4)c3C)nc2)n1	893 s
CN(C)C(=O)c1cc2c(s1)CCC(C(=O)N1CCOCC1)C2 (stereo not given)	781 s
Cc1cc2[nH]c(C(=O)Nc3ccc(F)cc3)c(CN3CCOCC3)c2s1	666 s
CSc1ccc(CNC(=O)C2CCN(c3cncnc3N3CCCCC3)CC2)cc1	734 s
CC(NC(=O)c1ccco1)c1nc(-c2ccc(N3CCCC3)cc2)no1 (stereo not given)	941 s
O=S(=O)(NC1CCCCC1)c1cc(-c2noc(C3CCCC3)n2)cs1	1230 s
COc1ccccc1N1CCN(Cc2nc(-c3ccc(N4CCC(C)CC4)nc3)no2)CC1	882 s
NC(=O)c1cc[nH]c1C1CCCN(S(=O)(=O)c2cnc[nH]2)C1 (stereo not given)	574 s
O=C(c1nc2ccccn2c1-c1ccc(Cl)cc1)N1CCCC1	712 s
CC(C)(C)CC(=O)N1CCCC(CCc2nnc(C3CCOCC3)o2)C1 (stereo not given)	758 s
Cc1cccc(CNC(=O)CN2CCN(Cc3ccc(F)cc3Cl)C2=O)c1	889 s
Clc1ccc(-c2nc(N3CCN(c4ccccn4)CC3)c3ccccc3n2)cc1	618 s
CNC(=O)N1CCCC(c2cccc(C(=O)NC(C)c3ccc(C)cc3C)c2)C1 (stereo not given)	880 s
COc1ncccc1C(=O)Nc1ccc2c(c1)CCC(=O)N2	641 s
COc1ccc(OC)c(NS(=O)(=O)c2cc3c(s2)CCN(C(=O)C2CCC2)C3)c1	866 s
Cc1ccc(C)c(NC(=O)N(C)CCc2noc(COc3ccccc3)n2)c1	934 s
CC(C)(C)c1csc(-c2csc(S(=O)(=O)Nc3ccc(F)c(F)c3)c2)n1	1260 s
O=C(C1CC1)N1CCCn2nc(-c3cccc(F)c3)cc2C1	784 s
CCn1c(C2CCN(S(=O)(=O)c3ccc(Cl)cc3)C2)nc2cccnc21 (stereo not given)	796 s
NC(=O)c1n[nH]c2c1CCCCCC2	644 s
Cn1cc(-c2ccccc2)cc1C(=O)N1CCOCC1	804 s

SMILES	RP-LC retention time
CCOc1ccccc1N1CCN(Cc2cc(C)[nH]n2)CC1	612 s
CCc1nnc2ccc(NC(=O)Nc3ccccc3C)cn12	691 s
CN1CCN(CCCNC(=O)CN2C(=O)C3CCCCN3c3ccc(C(=O)N(C)C)cc32)CC1 (stereo not given)	572 s
Cc1nnc(SCC(=O)N2CCOCC2)s1	560 s
Cc1c(NC(=O)c2cccs2)c(=O)n(-c2ccccc2)n1C	600 s
Cc1ccc(Oc2nccn3c(=O)n(CC(=O)NCCCc4ccccc4)nc23)cc1	928 s
Cc1nn(CC(=O)NCCCN(C)Cc2ccccc2)c(=O)c2noc(C)c12	588 s
O=C(NCCCCCCNC(=O)ON=C1CCCCC1)ON=C1CCCCC1	926 s
Nc1nc(SCC(=O)Nc2cccc(C(F)(F)F)c2)n[nH]1	637 s
CCOC(=O)c1[nH]c(C)c(C(=O)N2CCC(CC(=O)N3CCN(C4CCCCC4)CC3)CC2)c1C	598 s
COc1ccc2c(c1)C1(CCN(C(=O)NCCC(C)C)C1)C(=O)N2C (stereo not given)	770 s
O=C(Nc1ccc(F)cc1)Nc1ccc2nc3n(c(=O)c2c1)CCC3	688 s
COc1ccc(-c2nc(-c3ccc4c(c3)nc(C)c(=O)n4C)no2)cc1OC	876 s
CCCN1C(=O)COc2ccc(-c3csc(NC(=O)COC)n3)cc21	823 s
Cc1ccccc1-c1noc(Cn2c(=O)n(CCc3ccccc3)c(=O)c3sccc32)n1	1200 s
Fc1ccc(-c2noc(Cn3ccnc3)n2)cc1Br	650 s
O=C(O)CCC1CCCN(S(=O)(=O)c2ccccc2)C1 (stereo not given)	770 s
Cn1c(C2CCN(C(=O)Nc3ccc(F)cc3F)CC2)cc(=O)n2nccc12	647 s
Cc1cc(C)c(C(=O)N2CCC(CC(=O)NCCCN3CCCCCC3)CC2)[nH]1	594 s
O=c1oc2cc(S(=O)(=O)NCCO)ccc2c2ccc(S(=O)(=O)NCCO)cc12	589 s
Cc1cccc(NS(=O)(=O)c2cn(CC(C)C)c3ncccc23)c1	960 s
CCC(C)NC(=O)c1c2c(cn(-c3ccccc3)c1=O)C(=O)CC(C)(C)C2 (stereo not given)	942 s
